Counter-ions that a name gives are not always drawn.

One series deals with T1, amyloid β protein (Homo sapiens, UniProt P05067).
T1 construct: the amyloid β protein (purchased from Peptide Laboratory) was dissolved in a potassium phosphate buffer (pH7.4); purchased Peptide Laboratory
As to the kind of experiment: β structure recognition of amyloid β protein (thioflavin T fluorescence). It counts as binding. The following applies: for β structure recognition (%) at 1 µM / β Structure recognition (%): test compound 1 μM, thioflavin T 3 μM, average of duplicated experiments; for β structure recognition (%) at 1 µM: read-out: β Structure recognition (%); for β structure recognition (in words): comment on Table I. As to the method: (1) Method of Quantifying the Amyloid β Protein Having β Sheet Structure—method of Measuring of Recognition of β Structure in a Test Compound
Then, each 100 microliters of thioflavin T (which emits fluorescence depending on an extent of β structure of the amyloid β protein) dissolved in a glycine-NaOH buffer (pH 8.5) was added (final concentration 3 μM), and the fluorescence was immediately measured with a fluorescent microplate reader (manufactured by Molecular Device, Model fmax) at an excitation wavelength of 442 nm and a measurement wavelength of 485 nm. When the fluorescence of thioflavin alone was regarded as A, the fluorescence under the coexistence of the amyloid β protein and thioflavin T was regarded as B, and the fluorescence under the coexistence of the amyloid β protein, thioflavin T and a test compound was regarded as C, the recognition of β structure for the test compound was calculated by the following formula (unless otherwise indicated, the concentration of a test compound was 1 μM):
β structure recognition for test compound (%)={(B−C)/(B−A)}×100

Series [1] is described as follows: Distribution coefficient between water/1-octanol. It counts as physicochemical. The following applies: for Distribution coefficient: 1-octanol / phosphate buffer (pH 7.3) or ultra-pure water; for Distribution coefficient (in words): comment on Table I. As to the method:
As an oily phase, 1-octanol was used and, as an aqueous phase, a phosphate buffer (pH 7.3) or ultra-pure water was used. A suitable amount of a test compound was dissolved in an oily phase or an aqueous phase, and both phases were placed in the same test tube, and shaken vigorously at room temperature for 30 minutes. After allowing to stand at room temperature over 1 hour, centrifugation at 2000 rpm for 10 minutes was carried out, followed by further standing at room temperature for 1 hour. The aqueous phase and the oily phase were sampled, respectively, and transferred to a 96-well microplate. By using a microplate reader (manufactured by Molecular Device, Model Spectramax 250), the absorbance was measured at a maximum absorbing wavelength for each test compound, and the concentration of the test compound was calculated from a calibration curve previously obtained. A distribution coefficient was calculated by the following formula. Distribution coefficient for test compound =(concentration of test compound in oily phase)/(concentration of test compound in aqueous phase) As the distribution coefficient becomes larger, it can be said that the blood-brain barrier permeability for the test compound is higher.

T1 sequence (P05067 672-711 limits assumed): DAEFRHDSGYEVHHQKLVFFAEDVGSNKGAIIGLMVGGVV

Turning to `CN(C)c1ccc(/N=N/c2ccc(C(=O)O)cc2)cc1` [SA-606], at amyloid β protein, the β structure recognition (%) at 1 µM is 53.5%.
`CCN(CC)c1ccc(/N=N/c2ccc(N(C)C)cc2)c(NC(N)=O)c1` [BF-055]: the β structure recognition (%) at 1 µM on amyloid β protein amounted to 85%.
Same read-out and setting: then `Cc1cc(N(C)C)ccc1/N=N/c1ccccc1` [SA-135, 4-dimethylamino-2-methyl-azobenzene], with 42.8%.
In the case of `CCN(CC)c1ccc(/N=C/c2ccc(N(CC)CC)cc2O)cc1` [BF-021], on amyloid β protein, the “β Structure recognition (%)” value was determined as 70.8%. Also, in series [1], the Distribution coefficient is listed as 30 and the “Distribution coefficient (in words)” value is reported as “high distribution coefficients”.
For the molecule `CN(C)c1ccc(C=Cc2cccc[n+]2C)cc1.[I-]` [SA-213, 2-(4-(dimethylamino)stylyl)-1-methyl pyridinium iodide], on amyloid β protein, the “β Structure recognition (%)” value stood at 50.7%.
`CN(C)c1ccc(/C=N/c2cc3c(ccc4ccccc43)cn2)cc1` [SA-672, benzo(F) isoquinoline-2-yl-(4-dimethylaminobenzylidene)-amine]: the β structure recognition (%) at 1 µM at amyloid β protein worked out at 39.3%.
On to `CCOc1ccc(/N=C/c2ccc(N(C)C)cc2)cc1` [SA-399, N-(4-(dimethylamino)benzylidene)-p-phenetidine], for which the β structure recognition (%) at 1 µM at amyloid β protein came to 23.1%.
Regarding `CC[n+]1ccccc1/C=C/c1ccc(N(C)C)cc1` [SA-212, 2-(4-(dimethylamino)stylyl)-1-ethyl pyridinium iodide], on amyloid β protein, the β structure recognition (%) at 1 µM amounted to 46%.
For `CCN(CC)c1ccc(/N=N/c2ccc(S(=O)(=O)O)cc2)cc1` [SA-163, Ethyl Orange Na salt], the β structure recognition (%) at 1 µM on amyloid β protein is 30.7%.
Regarding `CC[n+]1c(/C=C/c2ccc(N(C)C)cc2)ccc2ccccc21` [SA-169, Quinaldine Red], at amyloid β protein, the “β structure recognition (in words)” value is on record as “highly recognize β structure” and the β structure recognition (%) at 1 µM was 91.9%. Besides, in series [1], the Distribution coefficient is recorded as 18.
With `O=C([O-])c1cc(/C=C/c2ccc(/C=C/c3ccc(O)c(C(=O)[O-])c3)cc2)ccc1O.[Na+].[Na+]` [Compound X34.2Na, reference compound], at amyloid β protein, the “β Structure recognition (%)” value came to 74.0%. In series [1], this molecule displayed a Distribution coefficient of 2.7.
As to `CN(C)c1ccc(/N=N/c2ccc(S(=O)(=O)O)cc2)cc1` [SA-125, Methyl Orange], the β structure recognition (%) at 1 µM on amyloid β protein came to 62.2%. Also, the Distribution coefficient in series [1] is 1.
With `Nc1ccc(/N=N/c2ccccc2)cc1` [SA-138, 4-phenyl azoaniline HCl salt], the β structure recognition (%) at 1 µM at amyloid β protein turned out to be 35.9%.
Same read-out and setting: then `CN(C)c1ccc(N=Nc2ccc(N)cc2Cl)cc1` [SA-376, Disperse Black 7], with 35.7%.
Take `CN(C)c1ccc(/C=C/c2ccc3ccccc3[n+]2C)cc1` [SA-245, 2-(4-(dimethylamino)stylyl)-1-methyl quinolinium iodide]: at amyloid β protein, the “β structure recognition (in words)” value is on record as “highly recognize β structure” and the β structure recognition (%) at 1 µM is 86.9%. In series [1], the Distribution coefficient worked out at 10.
In the case of `CCOc1ccc(/N=C/c2ccc(N(C)C)cc2)cc1.Cl` [BF-034], the “β Structure recognition (%)” value on amyloid β protein is 19.7%.
`CN(C)c1ccc(/C=N/c2ccc(F)cc2)cc1` [SA-407, N-(4-(dimethylamino)benzylidene)-4-fluoroaniline]: the β structure recognition (%) at 1 µM at amyloid β protein was found to be 6.8%.
As to `CN(C)c1ccc(/C=N/c2ccc(F)cc2)cc1.Cl` [BF-035], on amyloid β protein, the “β Structure recognition (%)” value was found to be 5.6%.
With `Nc1ccc(/N=N/c2ccccc2)cc1` [SA-148, 4-phenyl azoaniline], the “β Structure recognition (%)” value on amyloid β protein stood at 28.0%.
Turning to `Nc1c(SSc2ccc3ccccc3c2N)ccc2ccccc12` [SA-366, 2,2′-dithiobis(1-naphthylamine)], on amyloid β protein, the β structure recognition (%) at 1 µM worked out at 43.3%.
On the same count and under the same terms, then `Nc1ccc(/N=N/c2cccc3ccccc23)c(N)c1` [SA-201, Fat Brown RR], with 73%.
Regarding `CCN(CC)c1ccc(N=Nc2ccc(N(C)C)cc2)c(NC(N)=O)c1` [SA-420, 4-(diethylamino)-4′-(dimethylamino)-2-(ureido)azobenzene], at amyloid β protein, the “β structure recognition (in words)” value is recorded as “highly recognize β structure” and the β structure recognition (%) at 1 µM worked out at 71.6%.
On to `CN(C)c1ccc(/N=C2/C=CC(=O)c3ccccc32)cc1` [BF-022], for which the β structure recognition (%) at 1 µM at amyloid β protein was determined as 27.8%.
The same measure, in the same setting: then `CCN(CC)c1ccc(/C=N/c2ccccc2)cc1` [SA-757, N-(4-(diethylamino)benzylidene) aniline], with 33.9%.
Take `CN(C)c1ccc(/N=N/c2ccc(N)cc2)cc1` [SA-512, N,N-dimethyl-4,4′-azodianiline]: the β structure recognition (%) at 1 µM on amyloid β protein was found to be 68.2%.
`O=C(O)c1cc(/C=C/c2ccc(/C=C/c3ccc(O)c(C(=O)O)c3)cc2)ccc1O` [Compound X34, 1,4-bis[2-(3-carboxy-4-hydroxyphenyl)eten-yl]-benzene, reference compound]: the β structure recognition (%) at 1 µM at amyloid β protein was 73.9%. For the same molecule, the Distribution coefficient in series [1] is 3.4.
With `CN(C)c1ccc(/N=N/c2ccc(NC(=O)CI)cc2)cc1` [SA-446, N-(4-dimethylamino) azobenzene-4′-iodoacetamide], the β structure recognition (%) at 1 µM at amyloid β protein came out at 52.4%.
With `CN(C)c1ccc(SSc2ccc(N(C)C)cc2)cc1` [Compound N-200], the β structure recognition (%) at 1 µM at amyloid β protein turned out to be 21.6%.
`CCN(CC)c1ccc(/N=N/c2ccccc2)cc1` [SA-134, 4-(diethylamino) azobenzene]: the β structure recognition (%) at 1 µM at amyloid β protein stood at 65.4%.
Turning to `CN(C)c1ccc(/N=C/c2ccccc2)cc1` [SA-758, N-benzylidene-N′,N′-dimethylbenzene-1,4-diamine], at amyloid β protein, the β structure recognition (%) at 1 µM amounted to 46.5%.
On the same count and under the same terms, then `CN(C)c1ccc(/C=C/c2ccccn2)cc1` [SA-271], with 53%.
As to `CCN(CC)c1ccc(/C=C/c2cc[n+](C)cc2)cc1` [SA-445], at amyloid β protein, the β structure recognition (%) at 1 µM turned out to be 71.2%.
Take `Nc1ccc(/N=N/c2ccc([N+](=O)[O-])cc2)cc1` [SA-180, Disprese Orange 3]: at amyloid β protein, the β structure recognition (%) at 1 µM was 58%.
As for `Nc1ccc(/C=C/c2ccc(N)cc2)cc1` [SA-324, 4,4′-diaminostylbene (2HCl salt)], the β structure recognition (%) at 1 µM at amyloid β protein was 36%.
Take `CCN(CC)c1ccc(/C=C/c2cccc(/C=C/c3ccc(N(CC)CC)cc3)[n+]2C)cc1` [BF-064]: on amyloid β protein, the “β structure recognition (in words)” value is “highly recognize β structure” and the β structure recognition (%) at 1 µM came to 78.5%. In addition, in series [1], the Distribution coefficient is listed as 87 and the “Distribution coefficient (in words)” value is “high distribution coefficients”.
In the case of `COc1cc(N=Nc2ccc(N)cc2)c(C)cc1N` [SA-419, 4,4′diamino-5-methoxy-2-methyl azobenze], on amyloid β protein, the β structure recognition (%) at 1 µM is 38.4%.
Turning to `CN(C)c1ccc(N=Nc2ccccn2)cc1` [SA-215, 4-(2-pyridylazo)-N,N-dimethylaniline], on amyloid β protein, the “β structure recognition (in words)” value is given as “relatively high recognition of β structure” and the β structure recognition (%) at 1 µM was found to be 69.1%. For the same molecule, in series [1], the Distribution coefficient was greater than 100 and the “Distribution coefficient (in words)” value was “highest distribution coefficient”.
In the case of `CN(C)c1ccc(/N=N/c2ccc(S(=O)(=O)Cl)cc2)cc1` [SA-188, 4-(dimethylamino) azobenzene-4′-sulfonylchloride], the β structure recognition (%) at 1 µM at amyloid β protein was 62.7%.
With `CCN(CC)c1ccc(/N=N/c2ccc(Br)cn2)c(O)c1` [BF-020], the “β Structure recognition (%)” value at amyloid β protein is reported as 84.4%.
Turning to `CN(C)c1ccc(/C=N/c2ccc(O)cc2)cc1` [BF-033], the β structure recognition (%) at 1 µM at amyloid β protein came to 7.6%.
On to `O.O.O.O.O.O=C([O-])c1cc(N=Nc2ccc(-c3ccc(N=Nc4ccc(O)c(C(=O)[O-])c4)cc3)cc2)ccc1O.[Na+].[Na+]` [Chrysamine G 2Na.5H2O, reference compound], for which the “β Structure recognition (%)” value at amyloid β protein is 84.5%. Besides, in series [1], the Distribution coefficient amounted to 2.7.
Regarding `Nc1ccc(SSc2ccc(N)cc2)cc1` [SA-260, 4-aminophenyldisulfide], on amyloid β protein, the “β structure recognition (in words)” value is on record as “highly recognize β structure” and the β structure recognition (%) at 1 µM amounted to 83.1%.
On to `CCc1ccc(/N=C/c2ccc(N(C)C)cc2)cc1` [SA-408, N-(4-(dimethylamino)benzylidene)-4-ethylaniline], for which, at amyloid β protein, the β structure recognition (%) at 1 µM is 7.9%.
Still for that read-out and setting: then `CN(C)c1ccc(/C=C/c2ccc3ccccc3n2)cc1` [SA-770, 2-(4-(dimethylamino)stylyl) quinoline], with 25.4%.
Regarding `CN(C)c1ccc(C=Cc2cccc[n+]2C)cc1.[I-]` [SA-247, 2-(4-(dimethylamino)stylyl)-1-metyl pyridinium iodide], the “β Structure recognition (%)” value on amyloid β protein is on record as 19.5%.

The values above are taken from patent publication US20030138374A1, “Image diagnosis probe based on substituted azobenzene or analogue thereof for disease attributable to amyloid accumulation and composition for image diagnosis containing the same” (priority 2000, published 2003).
